Measured values as given in patent publication US20170000908A1, “A MICELLAR PARTICLE” (AGENCY FOR SCIENCE, TECHNOLOGY AND RESEARCH, priority 2013, published 2017).

Tests used:
[1] = Photoluminescence lifetime by Time Correlated Single Photon Counting (TCSPC); format: physicochemical; conditions: dye in THF; excited at 405 nm
Method: The photoluminescence lifetimes of the Coumarin545T@SiO2 and DCJTB@SiO2 samples were measured using a Time Correlated Single Photon Counting (TCSPC) module (PicoQuant PicoHarp 300 of PicoQuant of Berlin, Germany). The Coumarin545T@SiO2 and DCJTB@SiO2 samples were excited by using 405 nm line of a picosecond pulsed laser diode (PicoQuant PDL 800-B). The photoluminescence was dispersed through a monochromator (Acton SpectroPro 2300i) and detected with a micro channel plate photomultiplier tube (MCP-PMT) detector (Hamamatsu R3809U-50).
FIG. 4 is a graph showing the time-resolved photoluminescence decay of Coumarin545T dissolved in THF and that when encapsulated inside the core of the nanocapsules. FIG. 5 is a graph showing the time-resolved photoluminescence decay of DCJTB dissolved in THF and that when encapsulated inside the core of the nanocapsules. […] Based on these figures, when compared to the photoluminescence behavior of the dye solutions (Coumarin545T or DCJTB) in their respective solvents, there is a significant red-shift in the emission peak for both of the silica nanocapsules, which should be ascribed to the π-π stacking of the dye molecules by encapsulation. The emission spectra of the nanocapsules are also broader than the dye solutions in their respective solvents. […]

[2] = Quantum yield measured against fluorescence standard solutions; format: physicochemical; conditions: dye in THF
Method: Quantum yield was measured with respect to the fluorescence standard solution, namely fluorescein (Ethanol; QY=0.79), and rhodamine B (Ethanol; QY=0.49). Fluorescein was used as a reference for Coumarin545T@SiO2, whereas rhodamine B was used for DCJTB@SiO2. The procedures involved diluting the fluorescent silica nanocapsules and the fluorescence standard solution with their respective solvent to have the same absorbance at excitation wavelength (460 nm for fluorescein; 490 nm for rhodamine B). Quantum yields for fluorescent silica nanocapsules were measured by dividing, the integrated emission area of their fluorescent spectrum against that of fluorecein or rhodamine B in Ethanol. […] In addition, the lifetime of Coumarin545T@SiO2 was determined to be 3.38 ns, while the lifetime of coumarin545T in THF was determined to be 2.86 ns. Similarly, the lifetime of DCJTB@SiO2 was determined to be 3.40 ns, while the lifetime of DCJTB in THF was determined to be 2.50 ns.

[3] = UV-Vis and photoluminescent spectra (emission peak, fwhm); format: physicochemical; conditions: dye in THF
Text: The UV-Vis and photoluminescent spectra of Coumarin545T@SiO2 are shown in FIG. 2 while those of DCJTB@SiO2 are shown in FIG. 3.
FIG. 4 is a graph showing the time-resolved photoluminescence decay of Coumarin545T dissolved in THF and that when encapsulated inside the core of the nanocapsules. FIG. 5 is a graph showing the time-resolved photoluminescence decay of DCJTB dissolved in THF and that when encapsulated inside the core of the nanocapsules. […] Based on these figures, when compared to the photoluminescence behavior of the dye solutions (Coumarin545T or DCJTB) in their respective solvents, there is a significant red-shift in the emission peak for both of the silica nanocapsules, which should be ascribed to the π-π stacking of the dye molecules by encapsulation. The emission spectra of the nanocapsules are also broader than the dye solutions in their respective solvents. The silica coating could lead to improvement in the photostability of the dye molecules by limiting their contact with the outside environment, especially soluble oxygen molecules.

[4] = Ethanol; cited from earlier work

Fluorescence Lifetime (τ) [1] [ns]	Quantum Yield (QY) [2]	fwhm [3] [nm]	λem [3] [nm]	SMILES	Quantum yield (QY) of fluorescence standard solution [4]
2.50	0.99	73	605	CC(C)(C)C1=CC(=C(C#N)C#N)C=C(/C=C/c2cc3c4c(c2)C(C)(C)CCN4CCC3(C)C)O1 [DCJTB]	–
2.86	0.99	35	504	CC1(C)CCN2CCC(C)(C)c3c2c1cc1cc(-c2nc4ccccc4s2)c(=O)oc31 [Coumarin 545T]	–
–	–	–	–	CCN(CC)c1ccc2c(-c3ccccc3C(=O)O)c3ccc(=[N+](CC)CC)cc-3oc2c1.[Cl-] [rhodamine B]	0.49
